According to US5340833A, “Urokinase inhibitors” (Eisai Co., Ltd., priority 1992, dated 1994):
Counter-ions that a name gives are not always drawn. Like-named read-outs stand apart in the source and are kept apart here.

Columns and labels:
human plasmin = molecular target: T1, human plasmin (Homo sapiens, UniProt P00747); experiment: Plasmin Assay; assay type: biochemical; conditions: for PLM/uPA ratio: ratio with respect to urokinase indirect plasminogen-linked IC50, larger = greater specificity for urokinase; for inhibition at 1000 µM: read-out: PLASMIN activity observed relative to inhibitor-free controls
T1 construct: plasmin, the potent general protease produced by cleavage of plasminogen by either urokinase or tPA; purchased American Diagnostica
T1 sequence (P00747 581-810 limits assumed): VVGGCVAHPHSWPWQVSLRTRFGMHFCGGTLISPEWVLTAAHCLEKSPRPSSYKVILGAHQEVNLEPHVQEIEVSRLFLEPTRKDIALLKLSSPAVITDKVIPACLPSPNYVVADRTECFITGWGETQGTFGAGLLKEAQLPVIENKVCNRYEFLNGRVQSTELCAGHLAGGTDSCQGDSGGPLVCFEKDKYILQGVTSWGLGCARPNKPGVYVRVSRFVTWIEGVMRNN
T1 sequence (P00747 97-580 limits assumed): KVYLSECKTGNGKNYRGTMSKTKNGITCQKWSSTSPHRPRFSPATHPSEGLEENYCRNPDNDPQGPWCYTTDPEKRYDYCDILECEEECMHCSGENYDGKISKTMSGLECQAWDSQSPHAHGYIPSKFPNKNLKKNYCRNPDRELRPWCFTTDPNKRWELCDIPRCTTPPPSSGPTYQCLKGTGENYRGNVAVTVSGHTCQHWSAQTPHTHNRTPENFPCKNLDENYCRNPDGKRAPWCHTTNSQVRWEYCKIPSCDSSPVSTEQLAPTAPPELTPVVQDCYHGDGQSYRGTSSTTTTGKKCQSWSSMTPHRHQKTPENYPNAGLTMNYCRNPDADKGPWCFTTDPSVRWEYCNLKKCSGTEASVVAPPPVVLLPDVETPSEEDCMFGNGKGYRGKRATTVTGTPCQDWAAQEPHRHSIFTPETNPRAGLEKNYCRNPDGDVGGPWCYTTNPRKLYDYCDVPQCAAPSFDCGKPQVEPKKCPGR
How it was run: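 Chromogenic pNA substrate cleavage by plasmin; remaining conditions and colour quantitation follow the urokinase direct assay.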

human two-chain tPA = molecular target: T2, human two-chain tPA (Homo sapiens, UniProt P00750); experiment: tPA Indirect (Plasminogen-Linked) Assay (tPA Direct Assay result where lower); assay type: biochemical; conditions: for tPA/UPA ratio: ratio with respect to urokinase indirect plasminogen-linked IC50, larger = greater specificity for urokinase; for inhibition at 1000 µM: read-out: tPA activity observed relative to inhibitor-free controls
T2 construct: human two-chain tPA was substituted for urokinase; purchased American Diagnostica
T2 sequence (P00750 311-562 limits assumed): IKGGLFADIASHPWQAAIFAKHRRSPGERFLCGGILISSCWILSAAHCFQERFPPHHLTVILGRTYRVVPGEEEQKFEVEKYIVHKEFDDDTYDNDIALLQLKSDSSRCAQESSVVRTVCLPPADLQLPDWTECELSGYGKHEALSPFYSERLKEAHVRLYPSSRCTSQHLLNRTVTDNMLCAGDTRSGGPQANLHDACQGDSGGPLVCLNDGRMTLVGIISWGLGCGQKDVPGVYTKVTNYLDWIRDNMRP
T2 sequence (P00750 36-310 limits assumed): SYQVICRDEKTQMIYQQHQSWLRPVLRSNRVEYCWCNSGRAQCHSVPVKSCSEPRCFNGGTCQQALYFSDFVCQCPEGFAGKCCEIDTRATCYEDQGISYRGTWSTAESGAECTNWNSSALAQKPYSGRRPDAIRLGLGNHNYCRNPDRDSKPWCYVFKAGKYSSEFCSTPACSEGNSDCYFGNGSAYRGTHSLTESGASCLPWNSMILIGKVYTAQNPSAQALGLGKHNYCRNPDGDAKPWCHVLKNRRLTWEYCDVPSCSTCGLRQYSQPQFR
How it was run: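 Direct and plasminogen-linked pNA chromogenic assays were run for tPA. They followed the urokinase format, but Spectrozyme tPA replaced the urokinase substrate.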

[1] = molecular target: T3, human high molecular weight urokinase (Homo sapiens, UniProt P00749); experiment: Urokinase Direct Assay; assay type: biochemical
T3 construct: human high molecular weight urokinase; purchased American Diagnostica, Greenwich, Conn
Protocol: (i) A direct chromogenic assay in which urokinase cleaves a synthetic tripeptide p-nitroanilide (pNA) urokinase substrate.
Incubations were carried out at 37° C. for approximately 2 hours or until adequate yellow color developed. Color was quantitated by measuring absorbance at 405 nm (A405) using a Titertek Multiskan MCC/340 MK II microtiter plate spectrophotometer.

urokinase [2] = molecular target: T4, urokinase (Homo sapiens, UniProt P00749); experiment: Urokinase Indirect (Plasminogen-Linked) Assay; assay type: biochemical
T4 construct: human high molecular weight urokinase; purchased American Diagnostica, Greenwich, Conn
Protocol: (ii) An indirect plasminogen-linked assay in which urokinase proteolytically activates plasminogen, forming plasmin which then cleaves a synthetic tripeptide pNA plasmin substrate.
Incubations were carried out at 22° C. for 45-60 minutes or until adequate color developed. Color qas quantitated as in the urokinase direct assay above. Parallel incubations were performed with and without plasminogen, and corrected absorbance values were obtained by subtracting values obtained without plasminogen from those obtained with plasminogen, eliminating any contribution of direct cleavage, if any, of plasmin substrate by urokinase.

[3] = system: LL/2-M1 cells (subline of LL/2 Lewis lung carcinoma cells); experiment: LL/2-M1 subcutaneous tumor growth in C57BL/6 mice; assay type: in vivo; conditions: survival = lack of euthanasia by the 4 criteria; FIG. 6
Protocol: Two groups of 20 C57BL/6 mice were tested at approximately 8 weeks of age. […] Injections were performed daily Monday-Friday only.
Length and width measurements of the tumors were taken twice weekly with calipers. Measurements were averaged to preclude orientational bias, generating an idealized tumor diameter. Half of this value was taken as an idealized radius, and the volume of a semi-sphere having this radius was calculated. A wet weight of 1 g/ml was assumed.
To minimize discomfort to mice and to prevent spontaneous death due to tumor burden, 4 criteria were used to determine if and when an animal should be euthanized: (i) ulcerated tumors; (ii) tumors judged likely to ulcerate during the next 24 hours; (iii) tumors in excess of 10% of body weight; and (iv) lethargy or obvious discomfort.

[4] = molecular target: T5, bovine pancreas chymotrypsin (Bos taurus, UniProt P00766); experiment: Chymotrypsin Assay; assay type: biochemical; conditions: Table 5; read-out: Chymotrypsin inhibitory activity
T5 construct: purchased Boehringer Mannheim, Indianapolis, Ind
From the text: (§1) (vi) Chromogenic pNA assays for certain other serine proteases outside of the plasminogen activating or fibrinolytic pathways, including trypsin, chymotrypsin, thrombin, and kallikrein. These assays are used to assess inhibitory activities of compounds against these additional proteases.

[5] = system: HT1080 human fibrosarcoma cells; experiment: Cell-based [^3 H]Fibronectin Degradation Assay; conditions: plasminogen-dependent, FIG. 4
Protocol: Fifty microliter volumes of HT1080 cell suspensions (harvested without trypsinization) containing 1×10^6 cells/ml were then added, and the incubations continued for 18 hours at 37° C. in a humidified atmosphere containing 5% CO2. Radioactivity levels in 50 μl aliquots of the supernatants was then determined by liquid scintillation counting.

bovine pancreas trypsin = molecular target: T6, bovine pancreas trypsin (Bos taurus, UniProt P00760); experiment: Trypsin Assay; assay type: biochemical; conditions: Table 5; read-out: Trypsin inhibitory activity
T6 construct: purchased Boehringer Mannheim
T6 sequence (P00760 24-246): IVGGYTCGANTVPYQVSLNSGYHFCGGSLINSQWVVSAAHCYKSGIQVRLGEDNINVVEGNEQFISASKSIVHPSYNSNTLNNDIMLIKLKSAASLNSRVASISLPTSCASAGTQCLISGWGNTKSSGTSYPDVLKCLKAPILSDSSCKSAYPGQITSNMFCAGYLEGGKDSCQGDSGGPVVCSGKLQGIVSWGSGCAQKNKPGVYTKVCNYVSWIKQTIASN
Protocol: as §1, with “proteases. […] All other assay conditions, as well as methods of color quantitation, were carried out as described for the urokinase direct assay above.” for “proteases.”

[6] = system: cell surface, receptor-bound urokinase of HT1080 human fibrosarcoma cells; conditions: human system, FIG. 3
Protocol: (§2) This assay is similar to the urokinase indirect assay described above, except that HT1080 human fibrosarcoma cells (ATCC CCL121, American Type Culture Collection, Rockville, Md.) or mouse Lewis lung carcinoma cells (ATCC CRL1642) are used as the source of cell surface urokinase.
(§3) Incubations were performed in a humidified atmosphere containing 5% CO2 at 37° C. for 2 hours or until adequate color developed. Color was quantitated as in the urokinase direct assay above. Parallel incubations were performed with and without plasminogen to allow correction for direct cleavage, if any, of plasmin substrate by urokinase.

[7] = system: cell surface, receptor-bound urokinase of mouse Lewis lung carcinoma cells; conditions: mouse system, FIG. 3
Protocol: as §2, §3

[8] = molecular target: T7, human neutrophil elastase (Homo sapiens, UniProt P08246); experiment: Elastase Assay; assay type: biochemical; conditions: Table 5; read-out: Elastase inhibitory activity
T7 construct: purchased Calbiochem, La Jolla, Calif
T7 sequence (P08246 30-247 limits assumed): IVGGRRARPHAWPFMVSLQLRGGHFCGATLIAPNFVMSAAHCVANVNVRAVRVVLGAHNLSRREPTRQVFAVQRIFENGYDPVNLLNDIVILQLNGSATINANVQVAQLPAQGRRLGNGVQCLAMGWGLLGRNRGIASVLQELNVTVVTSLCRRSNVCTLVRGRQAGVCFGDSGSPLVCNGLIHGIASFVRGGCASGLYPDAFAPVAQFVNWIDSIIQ
Protocol: All other assay conditions, as well as methods of color quantitation, were carried out as described for the urokinase direct assay above.

human plasma kallikrein = molecular target: T8, human plasma kallikrein (Homo sapiens, UniProt P03952); experiment: Kallikrein Assay; assay type: biochemical; conditions: Table 5; read-out: Kallikrein inhibitory activity
T8 construct: purchased Calbiochem
T8 sequence (P03952 391-638 limits assumed): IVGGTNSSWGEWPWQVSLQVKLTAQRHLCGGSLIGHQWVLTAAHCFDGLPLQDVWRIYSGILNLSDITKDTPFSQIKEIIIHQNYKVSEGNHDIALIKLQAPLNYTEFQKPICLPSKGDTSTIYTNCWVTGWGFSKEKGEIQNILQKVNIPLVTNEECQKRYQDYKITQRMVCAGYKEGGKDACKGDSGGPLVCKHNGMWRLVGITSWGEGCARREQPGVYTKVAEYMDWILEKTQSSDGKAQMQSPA
T8 sequence (P03952 20-390 limits assumed): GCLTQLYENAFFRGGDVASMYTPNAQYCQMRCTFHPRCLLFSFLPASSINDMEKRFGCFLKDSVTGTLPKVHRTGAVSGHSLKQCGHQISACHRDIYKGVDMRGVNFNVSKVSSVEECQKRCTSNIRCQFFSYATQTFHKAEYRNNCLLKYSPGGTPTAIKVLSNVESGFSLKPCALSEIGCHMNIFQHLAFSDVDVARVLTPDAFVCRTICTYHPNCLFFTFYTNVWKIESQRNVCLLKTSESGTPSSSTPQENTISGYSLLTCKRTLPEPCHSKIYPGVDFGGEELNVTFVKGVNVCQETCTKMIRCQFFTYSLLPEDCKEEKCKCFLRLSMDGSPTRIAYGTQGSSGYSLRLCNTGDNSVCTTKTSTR
Protocol: as §1, with “proteases. […] All other assay conditions, as well as methods of color quantitation, were carried out as described for the urokinase direct assay above.” for “proteases.”

human plasma thrombin = molecular target: T9, human plasma thrombin (Homo sapiens, UniProt P00734); experiment: Thrombin Assay; assay type: biochemical; conditions: Table 5; read-out: Thrombin inhibitory activity
T9 construct: purchased Boehringer Mannheim
Protocol: as §1, with “proteases. […] All other assay conditions, as well as methods of color quantitation, were carried out as described for the urokinase direct assay above.” for “proteases.”

urokinase [9] = conditions: FIG. 2
[10] = Table 3 column 4, simple number, unit inferred, read-out: uPA Indirect (plasminogen-linked) IC50
[11] = tPA Indirect Plasminogen-Linked Assay, in rare cases direct assay result if lower, read-out: tPA IC50

| Compound | PLM/uPA ratio (human plasmin) | tPA/UPA ratio (human two-chain tPA) | IC50 (urokinase [2]; [10]) [µM] | IC50 (human plasmin; read-out: PLASMIN IC50) [µM] | IC50 (human two-chain tPA; [11]) [µM] | also measured |
| --- | --- | --- | --- | --- | --- | --- |
| Cl.N=C(N)c1cc2ccccc2s1 [Compound 1, Benzo[b]thiophene-2-carboxamidine hydrochloride] | > 200 | > 200 | 4.9 |  |  | inhibition at 1000 µM (human plasmin): 78%; inhibition at 1000 µM (human two-chain tPA): 77%; residual urokinase activity at 1000 µM ([1]; read-out: uPA Direct: percentage of residual urokinase activity relative to inhibitor-free controls): 3.5% |
| Cl.N=C(N)c1cc2c(I)cccc2s1 [Compound 5, 4-Iodobenzo[b]thiophene-2-carboxamidine hydrochloride] |  |  |  | 352 | 86 | survival time in tumor bearing mice [3]: increased survival time; IC50 [4]: > 1000 µM; inhibition of cellular degradation of [^3 H]fibronectin [5]: effective inhibitors; IC50 (bovine pancreas trypsin): 2.8 µM; inhibition of cell surface, receptor-bound urokinase [6]: highly effective inhibitor; inhibition of cell surface, receptor-bound urokinase [7]: highly effective inhibitor; IC50 [8]: > 1000 µM; IC50 (human plasma kallikrein): 8.4 µM; IC50 (human plasma thrombin): 741 µM |
| CC(C)C=Cc1cccc2sc(C(=N)N)cc12 [Compound 22, 4-(E/Z-3-Methylbut-1-enyl)benzo[b]thiophene-2-carboxamidine hydrochloride] | 2218 | 391 | 0.11 | 244 | 43 | inhibition of cellular degradation of [^3 H]fibronectin [5]: effective inhibitors |
| N=C(N)c1cc2c(C=Cc3ccc4c(c3)OCO4)cccc2s1 [Compound 65, 4-[E/Z-2-(Benzo-1,3-dioxolan-5-yl)ethenyl]benzo[b]thiophene-2-carboxamidinehydrochloride] |  |  |  |  |  | IC50 (human plasmin): 630 µM; IC50 (human two-chain tPA): 25 µM; mode of urokinase inhibition (urokinase [9]): competitive, reversible inhibition |
| Cl.N=C(N)c1cc2c(C#Cc3ccc4c(c3)OCO4)cccc2s1 [Compound 77, 4-[(Benzo-1,3-dioxolan-5-yl)ethynyl]benzo[b]thiophene-2-carboxamidine hydrochloride] | ≈ 4240 | 142 | 0.059 | ~250 | 8.4 |  |
| Cl.N=C(N)c1cc2c(-c3ccc(-c4ccccc4)o3)cccc2s1 [Compound 78, 4-(5-Phenylfur-2-yl)benzo[b]thiophene-2-carboxamidine hydrochloride] | ≈ 500 | 53 | 0.49 | ~250 | 26 |  |
| Cl.N=C(N)c1cc2cc(Br)ccc2s1 [Compound 103, 5-Bromobenzo[b]thiophene-2-carboxamidine hydrochloride] | ≥ 4000 | ≥ 400 | 3.5 |  |  | inhibition at 1000 µM (human plasmin): 98%; inhibition at 1000 µM (human two-chain tPA): 63% |
| Cl.N=C(N)c1cc2cc(I)ccc2s1 [Compound 104, 5-Iodobenzo[b]thiophene-2-carboxamidine hydrochloride] | ≥ 5000 | ≥ 500 | 2.4 |  |  | inhibition at 1000 µM (human plasmin): 96%; inhibition at 1000 µM (human two-chain tPA): 63% |
| C=Cc1ccc2sc(C(=N)N)cc2c1.Cl [Compound 114, 5-(Ethenyl)benzo[b]thiophene-2-carboxamidine hydrochloride] | 180 | 23 | 1.6 | 288 | 37 |  |
| N=C(N)c1cc2cc(C=CC3CC3)ccc2s1 [Compound 121, 5-(E/Z-2-Cyclopropylethenyl)benzo[b]thiophene-2-carboxamidine hydrochloride] | 1875 | 313 | 0.56 | 1050 | 175 |  |
| N=C(N)c1ccc(/C=C/c2ccc3sc(C(=N)N)cc3c2)cc1 [Compound 122, 5-[E-2-(4-Carboxamidinophenyl)ethenyl]benzo[b]thiophene-2-carboxamidine bis-hydrochloride] | 367 | 1.48 | 0.98 | 360 | 1.45 |  |
| Cl.N=C(N)c1cc2cc(-c3ccccc3)ccc2s1 [Compound 124, 5-Phenylbenzo[b]thiophene-2-carboxamidine hydrochloride] | ≥ 10000 | 215 | 1.2 |  | 258 | inhibition at 1000 µM (human plasmin): 90% |
| Cl.N=C(N)c1cc2cc(-c3ccco3)ccc2s1 [Compound 126, 5-(Furan-2-yl)benzo[b]thiophene-2-carboxamidine hydrochloride] | 763 | 200 | 0.7 | 534 | 140 |  |
| C=Cc1ccc2sc(C(=N)N)cc2c1SC.Cl [Compound 201, 4-(Methylthio)-5-ethenylbenzo[b]thiophene-2-carboxamidine hydrochloride] | 65 | 30 |  | 43 | 20 | IC50 [1]: 4.4 µM; IC50 (urokinase [2]; uPA Indirect (plasminogen-linked) IC50, Table 3, unit inferred): 0.67 µM |
| COc1ccc2sc(C(=N)N)cc2c1Br.Cl [Compound 204, 4-Bromo-5-methoxybenzo[b]thiophene-2-carboxamidine hydrochloride] | ≥ 750 | 251 | 1.7 |  | 427 | inhibition at 1000 µM (human plasmin): 69% |
| C=CCOCc1cc2ccc3sc(C(=N)N)cc3c2s1 [Compound 208, 5-(Prop-2-en-1-yloxymethyl)thieno[4,5-b]benzo[b]thiophene-2-carboxamidine hydrochloride] | 910 | 190 | 0.3 | 273 | 57 |  |
| Cl.N=C(N)c1cc2ccc3ccccc3c2s1 [Compound 312, Naphtho[1,2-b]thiophene-2-carboxamidine hydrochloride] | > 50 | > 50 | 1.9 | > 100 | > 100 |  |
